Reference: patent US20130245081A1, “Compositions and Methods for Treating Amyotrophic Lateral Sclerosis” (priority 2009, published 2013)
Several values for one entry are separate records, joined by “and”; a condition that tells them apart may be missing. Identical values can stand only once. Marks after values point to notes of the source that are not given here.

System: patients with ALS
Test: Part 2: 4-week single-blind placebo washout period (withdrawal effects)
[1] = 50 mg during Part 1, placebo washout period
[2] = 150 mg during Part 1, placebo washout period

Structure (SMILES): CCCN[C@@H]1CCc2nc(N)sc2C1 [dexpramipexole, (6R)-2-amino-4,5,6,7-tetrahydro-6-(propylamino)benzothiazole]
- Neutrophil Count, Mean (SD) (50 mg during Part 1, Baseline (Part 1: Week 12)): 4.539 (1.3112) ×10^3/μL
- Neutrophil Count, Mean (SD) (50 mg during Part 1, Part 2: Week 4 (end of placebo washout)): 4.470 (1.3436) ×10^3/μL
- ALS-related TEAE: Disease progression [1]: 1 (5%) N (%)
- ALS-related TEAE: Dyspnoea [1]: 1 (5%) N (%)
- ALS-related TEAE: Fall [1]: 2 (9%) N (%)
- ALS-related TEAE: General Disorders and Administration Site Conditions [1]: 2 (9%) N (%)
- ALS-related TEAE: Injury, Poisoning and Procedural Complications [1]: 2 (9%) N (%)
- ALS-related TEAE: Muscle spasms [1]: 1 (5%) N (%)
- ALS-related TEAE: Muscular weakness [1]: 4 (18%) N (%)
- ALS-related TEAE: Musculoskeletal and Connective Tissue Disorders [1]: 4 (18%) N (%)
- ALS-related TEAE: Respiratory, Thoracic and Mediastinal Disorders [1]: 1 (5%) N (%)
- Neutrophil Count, Mean Δ (SD) from baseline to Week 4 [1]: −0.022 (0.7157) ×10^3/μL
- Number of TEAEs [1]: 18
- Number of serious TEAEs [1]: 2
- Number of severe TEAEs [1]: 2
- Number of treatment-related TEAEs [1]: 2
- Subjects with a TEAE with action taken of study drug discontinued [1]: 0 N (%)
- Subjects with ≧1 ALS-related TEAE [1]: 7 (32%) N (%)
- TEAE: Anxiety [1]: 1 (5%) N (%)
- TEAE: Back pain [1]: 2 (9%) N (%)
- TEAE: Constipation [1]: 0 N (%)
- TEAE: Cough [1]: 0 N (%)
- TEAE: Diarrhoea [1]: 0 N (%)
- TEAE: Dyspnoea [1]: 1 (5%) N (%)
- TEAE: Fall [1]: 2 (9%) N (%)
- TEAE: Gastrointestinal Disorders [1]: 0 N (%)
- TEAE: General Disorders and Administration Site Conditions [1]: 2 (9%) N (%)
- TEAE: Injury, Poisoning and Procedural Complications [1]: 2 (9%) N (%)
- TEAE: Muscle spasms [1]: 1 (5%) N (%)
- TEAE: Muscular weakness [1]: 4 (18%) N (%)
- TEAE: Musculoskeletal and Connective Tissue Disorders [1]: 6 (27%) N (%)
- TEAE: Nausea [1]: 0 N (%)
- TEAE: Post lumbar puncture syndrome [1]: 0 N (%)
- TEAE: Psychiatric Disorders [1]: 1 (5%) N (%)
- TEAE: Pyrexia [1]: 1 (5%) N (%)
- TEAE: Respiratory, Thoracic and Mediastinal Disorders [1]: 1 (5%) N (%)
- mean change from baseline in ALSFRS-R score over 4 weeks [1]: −0.7
- mean change from baseline in VC over 4 weeks [1]: −2.9%
- serious TEAE: Disease progression [1]: 1 (5%)^a N (%)
- serious TEAE: Dyspnoea [1]: 1 (5%)^a N (%)
- serious TEAE: General Disorders and Administration Site Conditions [1]: 1 (5%) N (%)
- serious TEAE: Renal and Urinary Disorders [1]: 0 N (%)
- serious TEAE: Respiratory, Thoracic and Mediastinal Disorders [1]: 1 (5%) N (%)
- serious TEAE: Urethral obstruction [1]: 0 N (%)
- serious TEAE: Urinary retention [1]: 0 N (%)
- ≧1 TEAE [1]: 9 (41%) N (%)
- ≧1 TEAE with an outcome of death [1]: 2 N (%) and 2 (9%) N (%)
- ≧1 serious TEAE (including death) [1]: 2 (9%) N (%)
- ≧1 serious treatment-related TEAE [1]: 0 N (%)
- ≧1 severe TEAE [1]: 2 (9%) N (%)
- ≧1 treatment-related TEAE [1]: 2 (9%) N (%)
- Neutrophil Count, Mean (SD) (150 mg during Part 1, Baseline (Part 1: Week 12)): 3.931 (1.4130) ×10^3/μL
- Neutrophil Count, Mean (SD) (150 mg during Part 1, Part 2: Week 4 (end of placebo washout)): 4.753 (1.5327) ×10^3/μL
- ALS-related TEAE: Disease progression [2]: 0 N (%)
- ALS-related TEAE: Dyspnoea [2]: 0 N (%)
- ALS-related TEAE: Fall [2]: 3 (12%) N (%)
- ALS-related TEAE: General Disorders and Administration Site Conditions [2]: 0 N (%)
- ALS-related TEAE: Injury, Poisoning and Procedural Complications [2]: 3 (12%) N (%)
- ALS-related TEAE: Muscle spasms [2]: 1 (4%) N (%)
- ALS-related TEAE: Muscular weakness [2]: 1 (4%) N (%)
- ALS-related TEAE: Musculoskeletal and Connective Tissue Disorders [2]: 2 (8%) N (%)
- ALS-related TEAE: Respiratory, Thoracic and Mediastinal Disorders [2]: 1 (4%) N (%)
- Neutrophil Count, Mean Δ (SD) from baseline to Week 4 [2]: 0.841 (1.1854) ×10^3/μL
- Number of TEAEs [2]: 29
- Number of serious TEAEs [2]: 0
- Number of severe TEAEs [2]: 0
- Number of treatment-related TEAEs [2]: 5
- Subjects with a TEAE with action taken of study drug discontinued [2]: 0 N (%)
- Subjects with ≧1 ALS-related TEAE [2]: 7 (28%) N (%)
- TEAE: Anxiety [2]: 0 N (%)
- TEAE: Back pain [2]: 0 N (%)
- TEAE: Constipation [2]: 1 (4%) N (%)
- TEAE: Cough [2]: 2 (8%) N (%)
- TEAE: Diarrhoea [2]: 2 (8%) N (%)
- TEAE: Dyspnoea [2]: 0 N (%)
- TEAE: Fall [2]: 3 (12%) N (%)
- TEAE: Gastrointestinal Disorders [2]: 5 (20%) N (%)
- TEAE: General Disorders and Administration Site Conditions [2]: 1 (4%) N (%)
- TEAE: Injury, Poisoning and Procedural Complications [2]: 4 (16%) N (%)
- TEAE: Muscle spasms [2]: 1 (4%) N (%)
- TEAE: Muscular weakness [2]: 1 (4%) N (%)
- TEAE: Musculoskeletal and Connective Tissue Disorders [2]: 3 (12%) N (%)
- TEAE: Nausea [2]: 1 (4%) N (%)
- TEAE: Post lumbar puncture syndrome [2]: 1 (4%) N (%)
- TEAE: Psychiatric Disorders [2]: 2 (8%) N (%)
- TEAE: Pyrexia [2]: 0 N (%)
- TEAE: Respiratory, Thoracic and Mediastinal Disorders [2]: 2 (8%) N (%)
- mean change from baseline in ALSFRS-R score over 4 weeks [2]: −1.0
- mean change from baseline in VC over 4 weeks [2]: −1.7%
- serious TEAE: Disease progression [2]: 0 N (%)
